This is an account of results in patent US10173991B2, “Sulfone amide linked benzothiazole inhibitors of endothelial lipase” (BRISTOL-MYERS SQUIBB COMPANY, priority 2014, dated 2019).

pIC50: −log10 of the molar value.

Sequence of Endothelial lipase (EL) (Q9Y5X9 21-500): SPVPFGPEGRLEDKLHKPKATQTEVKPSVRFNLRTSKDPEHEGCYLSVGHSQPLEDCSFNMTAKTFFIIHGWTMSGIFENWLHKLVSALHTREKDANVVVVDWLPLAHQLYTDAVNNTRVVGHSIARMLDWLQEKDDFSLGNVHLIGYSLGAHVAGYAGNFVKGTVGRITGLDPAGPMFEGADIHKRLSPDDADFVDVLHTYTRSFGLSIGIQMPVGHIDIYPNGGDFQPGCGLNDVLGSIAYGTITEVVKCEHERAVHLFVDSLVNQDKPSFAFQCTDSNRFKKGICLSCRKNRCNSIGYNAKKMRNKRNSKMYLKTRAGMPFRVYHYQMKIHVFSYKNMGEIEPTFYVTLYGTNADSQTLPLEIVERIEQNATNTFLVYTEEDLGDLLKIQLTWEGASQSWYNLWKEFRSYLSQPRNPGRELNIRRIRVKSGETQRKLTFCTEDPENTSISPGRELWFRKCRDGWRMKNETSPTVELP

In the assay the target is Endothelial lipase (EL) (Homo sapiens (Human), UniProt Q9Y5X9). In words: Endothelial lipase (EL) enzymatic assay with fluorescent substrate A10070 in DMPG vesicles. Format: biochemical. The essentials:
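Compounds were preincubated with enzyme for 30 min at 37° C before FRET-substrate vesicles (A10070 in DMPG, 0.11 mole fraction) were added. Reaction rates were obtained from the 300–900 sec slope of fluorescence at 490/530 nm.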
As usually defined, the pIC50 is the negative decadic logarithm of the IC50, by convention in mol/L. The compound `CS(=O)(=O)C(C(=O)NCC(=O)NC1CC1)c1nc2cc(OC(F)F)c(-c3cccc(-n4cccn4)c3)cc2s1` (stereo not drawn) [Example 605, N-[(cyclopropyl-carbamoyl)methyl]-2-[5-(difluoromethoxy)-6-[3-(1H-pyrazol-1-yl)phenyl]-1,3-benzothiazol-2-yl]-2-methanesulfonyl-acetamide] showed a pIC50 of 8.52. The figure for `O=C(CNC(=O)C(c1nc2ccc(-c3ccc(F)nc3)cc2s1)S(=O)(=O)N1CCOCC1)NC1CC1` (stereo not drawn) [Example 483, N-[(cyclopropyl-carbamoyl)methyl]-2-[6-(6-fluoropyridin-3-yl)-1,3-benzothiazol-2-yl]-2-(morpholine-4-sulfonyl)acetamide] is 6.52; for `COC(=O)Nc1ccc(-c2ccc3nc(C(C(=O)NCC(=O)NC4CC4)S(C)(=O)=O)sc3c2)c(C)c1` (stereo not drawn) [Example 29, methyl N-{4-[2-({[(cyclopropyl-carbamoyl)methyl]carbamoyl} (methanesulfonyl)methyl)-1,3-benzothiazol-6-yl]-3-methylphenyl} carbamate] it is 7.70. As for `CC(C)(O)Cn1cc(-c2ccc3nc(C(C(=O)NCC(=O)NC4CC4)S(C)(=O)=O)sc3c2)cn1` (stereo not drawn) [Example 109, N-[(cyclopropyl-carbamoyl)methyl]-2-{6-[1-(2-hydroxy-2-methylpropyl)-1H-pyrazol-4-yl]-1,3-benzothiazol-2-yl}-2-methanesulfonyl-acetamide], the figure is 7.85.

As for `O=C(CNC(=O)C(c1nc2cc(F)c(-c3ccc(NC(=O)OCC(F)(F)F)cc3)cc2s1)S(=O)(=O)CCC(F)(F)F)NC1CC1` (stereo not drawn) [Example 529, 2,2,2-trifluoroethyl N-{4-[2-({[(cyclopropyl-carbamoyl)methyl]carbamoyl}(3,3,3-trifluoropropane-sulfonyl)methyl)-5-fluoro-1,3-benzothiazol-6-yl]phenyl} carbamate], the pIC50 is 8.70. As for `COCCS(=O)(=O)C(C(=O)NCC(=O)NC1CC1)c1nc2cc(-c3ccc(-c4ccn[nH]4)cc3)c(F)cc2s1` (stereo not drawn) [Example 130, N-[(cyclopropyl-carbamoyl)methyl]-2-{6-fluoro-5-[4-(1H-pyrazol-5-yl)phenyl]-1,3-benzothiazol-2-yl}-2-(2-methoxyethane-sulfonyl) acetamide], the figure is 7.74; as for `COC(=O)Nc1ccc(-c2cc3nc(C(C(=O)NCC(=O)NC4CC4)S(C)(=O)=O)sc3cc2F)cc1` (stereo not drawn) [Example 114, methyl N-{4-[2-({[(cyclopropyl-carbamoyl)methyl]caramoyl} (methanesulfonyl)methyl)-6-fluoro-1,3-benzothiazol-5-yl]phenyl} carbamate], 8.40. The figure for `COC(C)(C)CNC(=O)c1ccc(-c2ccc3nc(C(C(=O)NCC(=O)NC4CC4)S(C)(=O)=O)sc3c2)cc1` (stereo not drawn) [Example 571, 4-[2-({[(cyclopropyl-carbamoyl)methyl]carbamoyl} (methanesulfonyl)methyl)-1,3-benzothiazol-6-yl]-N-(2-methoxy-2-methylpropyl) benzamide] is 7.92; for `COCCS(=O)(=O)C(C(=O)NCC(=O)NC1CC1)c1nc2cc(F)c(-c3cccc(Cl)c3)cc2s1` (stereo not drawn) [Example 40, 2-[6-(3-chlorophenyl)-5-fluoro-1,3-benzothiazol-2-yl]-N-[(cyclopropyl-carbamoyl)methyl]-2-(2-methoxyethane-sulfonyl)acetamide] it is 8.52; for `COCCS(=O)(=O)C(C(=O)NCC(=O)NC1CC1)c1nc2cc(F)c(-c3ccc4cnn(C)c4c3)cc2s1` (stereo not drawn) [Example 198, N-[(cyclopropyl-carbamoyl)methyl]-2-[5-fluoro-6-(1-methyl-1H-indazol-6-yl)-1,3-benzothiazol-2-yl]-2-(2-methoxyethane-sulfonyl) acetamide] it is 8.30. `COC(=O)Nc1ccc(-c2cc3sc(C(C(=O)NCC(=O)NC4CC4)S(C)(=O)=O)nc3cc2F)cc1` (stereo not drawn) [Example 120, methyl N-{4-[2-({[(cyclopropyl-carbamoyl)methyl]carbamoyl} (methanesulfonyl)methyl)-5-fluoro-1,3-benzothiazol-6-yl]phenyl} carbamate]: the pIC50 was 8.40. As for `COCCS(=O)(=O)C(C(=O)NCC(=O)NC1CC1)c1nc2cc(-c3cccc(-c4nnn[nH]4)c3)c(F)cc2s1` (stereo not drawn) [Example 133, N-[(cyclopropyl-carbamoyl)methyl]-2-{6-fluoro-5-[3-(1H-1,2,3,4-tetrazol-5-yl)phenyl]-1,3-benzothiazol-2-yl}-2-(2-methoxyethane-sulfonyl) acetamide], the figure is 6.84; as for `O=C(CNC(=O)C(c1nc2cc(F)c(-c3ccc(-n4nc(C(F)(F)F)cc4C(=O)O)cc3)cc2s1)S(=O)(=O)CCC(F)(F)F)NC1CC1` (stereo not drawn) [Example 588, 1-{4-[2-({[(cyclopropyl-carbamoyl)methyl]carbamoyl}(3,3,3-trifluoropropane-sulfonyl)methyl)-5-fluoro-1,3-benzothiazol-6-yl]phenyl}-3-(trifluoromethyl)-1H-pyrazole-5-carboxylic acid], 8.22.

The compound `O=C(CNC(=O)C(c1nc2ccc(-c3cncnc3)cc2s1)S(=O)(=O)c1ccc(F)cc1)NC1CC1` (stereo not drawn) [Example 460, N-[(cyclopropyl-carbamoyl)methyl]-2-(4-fluorobenzene-sulfonyl)-2-[6-(pyrimidin-5-yl)-1,3-benzothiazol-2-yl]acetamide] had a negative-log IC50 (pIC50) of 7.33. This pIC50 is 0.89 log units lower than that of the compound before. The figure for `O=C(CNC(=O)C(c1nc2cc(F)c(-c3ccc(-n4ccccc4=O)cc3)cc2s1)S(=O)(=O)c1ccc(F)cc1)NC1CC1` (stereo not drawn) [Example 479, N-[(cyclopropyl-carbamoyl)methyl]-2-{5-fluoro-6-[4-(2-oxo-1,2-dihydropyridin-1-yl)phenyl]-1,3-benzothiazol-2-yl}-2-(4-fluorobenzene-sulfonyl)acetamide] is 8.05; for `CS(=O)(=O)C(C(=O)NCC(=O)NC1CC1)c1nc2ccc(-c3ccc(C(=O)NCC(F)(F)F)cc3)cc2s1` (stereo not drawn) [Example 103, 4-[2-({[(cyclopropyl-carbamoyl)methyl]carbamoyl} (methanesulfonyl)methyl)-1,3-benzothiazol-6-yl]-N-(2,2,2-trifluoroethyl) benzamide] it is 7.70; for `COCCS(=O)(=O)C(C(=O)NCC(=O)NC1CC1)c1nc2ccc(-c3cc(C)nn3C)cc2s1` (stereo not drawn) [Example 317, N-[(cyclopropyl-carbamoyl)methyl]-2-[6-(1,3-dimethyl-1H-pyrazol-5-yl)-1,3-benzothiazol-2-yl]-2-(2-methoxyethane-sulfonyl)acetamide] it is 8.40. `CC(C)(C)OC(=O)N1CC(S(=O)(=O)C(C(=O)NCC(=O)NC2CC2)c2nc3ccc(-c4ccc(F)nc4)cc3s2)C1` (stereo not drawn) [Example 227, tert-butyl 3-({[(cyclopropyl-carbamoyl)methyl]carbamoyl}[6-(6-fluoropyridin-3-yl)-1,3-benzothiazol-2-yl]methanesulfonyl) azetidine-1-carboxylate] had a pIC50 of 6.99. The figure for `O=C(CNC(=O)C(c1nc2ccc(-c3cccnc3F)cc2s1)S(=O)(=O)Cc1ccc(F)cc1)NC1CC1` (stereo not drawn) [Example 229, N-[(cyclopropyl-carbamoyl)methyl]-2-[(4-fluorophenyl)methanesulfonyl]-2-[6-(2-fluoropyridin-3-yl)-1,3-benzothiazol-2-yl]acetamide] is 6.82; for `CC(C)S(=O)(=O)C(C(=O)NCC(=O)NC1CC1)c1nc2c(F)cc(-c3ccc(N4CCCC4=O)cc3)cc2s1` (stereo not drawn) [Example 283, N-[(cyclopropyl-carbamoyl)methyl]-2-{4-fluoro-6-[4-(2-oxopyrrolidin-1-yl)phenyl]-1,3-benzothiazol-2-yl}-2-(propane-2-sulfonyl)acetamide] it is 8.00. As for `Cc1cc(-c2cc3sc(C(C(=O)NCC(=O)NC4CC4)S(=O)(=O)C(C)C)nc3cc2F)cnn1` (stereo not drawn) [Example 240, N-[(cyclopropylcarbamoyl)methyl]-2-[5-fluoro-6-(6-methylpyridazin-4-yl)-1,3-benzothiazol-2-yl]-2-(propane-2-sulfonyl) acetamide], the figure is 6.72; as for `CS(=O)(=O)C(C(=O)NCC(=O)NC1CC1)c1nc2ccc(-c3ccc(-n4cccn4)cc3)cc2s1` (stereo not drawn) [Example 373, N-[(cyclopropyl-carbamoyl)methyl]-2-methanesulfonyl-2-{6-[4-(1H-pyrazol-1-yl)phenyl]-1,3-benzothiazol-2-yl}acetamide], 8.70; as for `COCCS(=O)(=O)C(C(=O)NCC(=O)NC1CC1)c1nc2cc(-c3ccc(Cl)nc3)ccc2s1` (stereo not drawn) [Example 72, 2-[5-(6-chloropyridin-3-yl)-1,3-benzothiazol-2-yl]-N-[(cyclopropyl-carbamoyl)methyl]-2-(2-methoxyethane-sulfonyl) acetamide], 7.60. As for `COCCS(=O)(=O)C(C(=O)NCC(=O)NC1CC1)c1nc2cc(-c3cnc(F)cc3C)ccc2s1` (stereo not drawn) [Example 81, N-[(cyclopropyl-carbamoyl)methyl]-2-[5-(6-fluoro-4-methylpyridin-3-yl)-1,3-benzothiazol-2-yl]-2-(2-methoxyethane-sulfonyl) acetamide], the figure is 7.24; as for `COCCS(=O)(=O)C(C(=O)NCC(=O)NC1CC1)c1nc2cc(C)c(-c3ccc4c(cnn4C)c3)cc2s1` (stereo not drawn) [Example 148, N-[(cyclopropyl-carbamoyl)methyl]-2-(2-methoxyethane-sulfonyl)-2-[5-methyl-6-(1-methyl-1H-indazol-5-yl)-1,3-benzothiazol-2-yl] acetamide], 8.70; as for `COC(=O)Nc1ccc(-c2cc(Cl)c3nc(C(C(=O)NCC(=O)NC4CC4)S(C)(=O)=O)sc3c2)cc1F` (stereo not drawn) [Example 124, methyl N-{4-[4-chloro-2-({[(cyclopropyl-carbamoyl)methyl]carbamoyl} (methanesulfonyl)methyl)-1,3-benzothiazol-6-yl]-2-fluorophenyl} carbamate], 8.70. Take `CC(C)S(=O)(=O)C(C(=O)NCC(=O)NC1CC1)c1nc2cc(F)c(-c3cn(C)c(=O)c4ccccc34)cc2s1` (stereo not drawn) [Example 233, N-[(cyclopropyl-carbamoyl)methyl]-2-[5-fluoro-6-(2-methyl-1-oxo-1,2-dihydro-isoquinolin-4-yl)-1,3-benzothiazol-2-yl]-2-(propane-2-sulfonyl) acetamide]: the pIC50 is 7.59.
